{"source": "patent US20170326199A1", "about": "“USE OF CASPASE-2 INHIBITORS TO TREAT AND PREVENT THE METABOLIC SYNDROME” (Duke University, priority 2015, published 2017)", "key": {"[1]": {"system": "other classes of proteases or other enzymes or receptors other than caspases", "conditions": "selectivity; cited from earlier work"}, "[2]": {"system": "human caspases (including caspase-2)", "conditions": "broad-spectrum (pan-caspase) inhibitor; cited from earlier work"}, "caspase-2": {"molecular_target": "T1, caspase-2 (Homo sapiens, UniProt P42575)", "T1 sequence (P42575 1-452)": "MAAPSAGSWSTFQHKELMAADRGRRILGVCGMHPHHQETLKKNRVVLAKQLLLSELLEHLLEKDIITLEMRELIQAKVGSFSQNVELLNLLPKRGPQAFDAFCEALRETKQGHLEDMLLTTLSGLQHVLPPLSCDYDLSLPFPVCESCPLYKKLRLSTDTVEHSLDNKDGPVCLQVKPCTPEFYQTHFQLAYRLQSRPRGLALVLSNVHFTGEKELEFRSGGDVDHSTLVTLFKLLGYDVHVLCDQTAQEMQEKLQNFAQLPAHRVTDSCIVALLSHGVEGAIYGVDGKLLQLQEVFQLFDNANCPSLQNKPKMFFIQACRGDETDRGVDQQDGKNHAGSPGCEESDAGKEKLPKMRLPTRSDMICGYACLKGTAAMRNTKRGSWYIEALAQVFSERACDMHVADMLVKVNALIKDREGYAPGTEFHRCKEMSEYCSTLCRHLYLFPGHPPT", "conditions": "cell-permeable peptide; cited from earlier work"}, "[3]": {"system": "3T3-L1 cells differentiated in adipocytes", "test": "Palmitate-induced lipoapoptosis (caspase 3/7 activity, ApoTox-Glo Triplex Assay) in 3T3-L1 adipocytes", "assay_type": "cell-based", "conditions": "palmitate 1 mM, 48 hours, inhibitor 20 uM, FIG. 4G", "experimental": "FIG. 4G. […] Left panel: apoptosis (caspase 3/7 activity) in adipocytes treated with Palmitate 1 mM, 48 hour±caspase-2 inhibitor, VDVAD-FMK 20 uM.\n3T3-L1 cells were differentiated in adipocytes as previously described (Zebisch et al., 2012), and differentiation confirmed with Oil red staining. Adipocytes were treated with palmitate 1 mM with or without caspase-2 inhibitor Z-VDVAD-FMK (R&D Systems), 20 uM, for 48 hours. Apoptosis was measured using ApoTox-Glo Triplex Assay (Promega)."}}, "data": [{"molecule": "C[C@H](NC(=O)C(=O)Nc1ccccc1C(C)(C)C)C(=O)N[C@@H](CC(=O)O)C(=O)COc1c(F)c(F)cc(F)c1F", "note": "[IDN-6556]", "values": [{"measurement": "inhibition of non-caspase proteases, enzymes or receptors", "setting": "[1]", "result": "no inhibition"}, {"measurement": "activity against caspases", "setting": "[2]", "result": "activity against all tested human caspases (including caspase-2)"}]}, {"molecule": "VDVAD [available as a fluoromethylketone derivative]", "values": [{"measurement": "inhibition of caspase-2 activity", "setting": "caspase-2", "result": "irreversibly inhibits"}]}, {"molecule": "Z-VDVAD-FMK", "values": [{"measurement": "effect on palmitate-induced lipoapoptosis in adipocytes", "setting": "[3]", "result": "prevented"}]}]}
